Laboratory results published in patent publication US20220204493A1, “CRYSTALLINE FORM OF A BET-INHIBITOR AND MANUFACTURE THEREOF” (ORION CORPORATION, priority 2019, published 2022).

How the values were obtained:
[1] = Hygroscopicity of crystalline form 1; assay type: physicochemical
[2] = Long-term stability of crystalline form 1 at different storage conditions (XRPD); assay type: physicochemical
Method: (§1) Four samples of compound (I) in crystalline form 2 (with traces of form 1) prepared according to Example 10 were stored at stressed conditions. XRPD of each sample was recorded at initial time point and at further time points. Moreover, long term stability of crystalline form 1 of compound (I) at different storage conditions was studied.

[3] = Relative stability study between crystalline form 1 and 2 (storage at stressed conditions, XRPD at time points); assay type: physicochemical
Method: The XRPD pattern of the crystalline form 1 of compound (I) was measured using a PANalytical X'Celerator θ-θ diffractometer with CuKα radiation (40 kV, 30 mA). The diffractometer was operated in reflection mode. The measurements were performed in the range of 3°-40° 2θ. 100-300 mg of the sample powder was placed in the sample holder and the surface was pressed. For comparison purposes, the XRPD pattern of an unmilled sample of crystalline form 1 and the XRPD pattern of a milled sample of crystalline form 1 are shown together in FIG. 3.
The XRPD pattern of the amorphic form and the crystalline form 2 of compound (I) were measured as above except that a small sample amounts (approximately 5-10 mg) were first placed in the centre of a zero-background sample holder and then gently spread to a thin layer.
as §1

COc1cc2c(cc1-c1c(C)noc1C)cc(C)c(=O)n2Cc1ccccn1 [Crystalline form 1, 6-(3,5-dimethylisoxazol-4-yl)-7-methoxy-3-methyl-1-(pyridin-2-ylmethyl)quinolin-2(1H)-one]
Hygroscopicity [1]: low hygroscopicity
Physical stability [2]: physically stable
Long-term stability, changes by XRPD ([2]; 25° C./RH 60 % and 40° C./RH 75 %): no changes were observed
Long-term stability (stable up to; no changes by XRPD) ([2]; storage 25° C./RH 60 %): Stable up to 24 months
Long-term stability (stable up to; no changes by XRPD) ([2]; storage 40° C./RH 75 %): Stable up to 6 months
Relative stability of the crystalline forms ([3]; all studied conditions): more stable than form 2

COc1cc2c(cc1-c1c(C)noc1C)cc(C)c(=O)n2Cc1ccccn1 [amorphous compound (I), 6-(3,5-Dimethylisoxazol-4-yl)-7-methoxy-3-methyl-1-(pyridin-2-ylmethyl)quinolin-2(1H)-one]
melting point: 180 °C

COc1cc2c(cc1-c1c(C)noc1C)cc(C)c(=O)n2Cc1ccccn1 [crystalline form 2, 6-(3,5-dimethylisoxazol-4-yl)-7-methoxy-3-methyl-1-(pyridin-2-ylmethyl)quinolin-2(1H)-one]
Crystalline form found by XRPD ([3]; 25 °C/RH 60 %, 2 weeks): II +
Crystalline form found by XRPD ([3]; 25 °C/RH 60 %, 4 weeks): II +
Crystalline form found by XRPD ([3]; 25 °C/RH 60 %, 12 weeks): II +
Crystalline form found by XRPD ([3]; 25 °C/RH 60 %, 24 weeks): I +
Crystalline form found by XRPD ([3]; 25 °C/RH 60 %, initial): II +
Crystalline form found by XRPD ([3]; 30 °C/RH 65 %, 2 weeks): II +
Crystalline form found by XRPD ([3]; 30 °C/RH 65 %, 4 weeks): II +
Crystalline form found by XRPD ([3]; 30 °C/RH 65 %, 12 weeks): II +
Crystalline form found by XRPD ([3]; 30 °C/RH 65 %, 24 weeks): I +
Crystalline form found by XRPD ([3]; 30 °C/RH 65 %, initial): II +
Crystalline form found by XRPD ([3]; 40 °C/RH 75 %, 2 weeks): II +
Crystalline form found by XRPD ([3]; 40 °C/RH 75 %, 4 weeks): II +
Crystalline form found by XRPD ([3]; 40 °C/RH 75 %, initial): II +
Crystalline form found by XRPD ([3]; RT/RH 5 %, initial): II +
Time for transformation of form 2 to form 1 ([3]; all studied conditions): ≤ 36 weeks
